Results published in patent US20260240976A1, “T[…] VACCINES BASED ON VALIDATED TARGET EPITOPES” (Deutsches Krebsforschungszentrum Stiftung des öffentlichen …, priority 2023, published 2026).

Legend:
[1] = test system: short-term antigen-specific T cell lines generated from PBMCs; assay: Interferon-γ ELISpot assay on short-term antigen-specific T cell lines; format: cell-based, human
[2] = test system: peptide-specific T cell cultures; assay: T cell phenotyping and intracellular cytokine staining (IFN-gamma, TNF-alpha); format: cell-based, human; design: key: +: cytokine: Immunogenicity of the peptide shown by intracellular cytokine staining (IFN-gamma, TNF-alpha); +*: *highlights data from published resources.; *highlights data from published resources
Method: To characterize and quantify the responsive cells upon peptide stimulation, the peptide-specific T cell cultures with positive ELISpot results were further analyzed with T cell phenotyping and intracellular cytokine staining (ICS) assessed by flow cytometry.
The cells of the respective continued short-term T cell culture as well as the DMSO-stimulated and an unresponsive T cell line were harvested into 2 mL reaction tubes and centrifuged at 400×g for 10 min. The supernatant was discarded and the pellet of the unresponsive T cell line was resuspended in 100 μL ELISpot medium and used as unstimulated and unstained control. The pellets of the responsive and the DMSO-stimulated T cell lines were resuspended in 200 μL ELISpot medium and split equally into two wells of a V-bottom 96-well plate. One well of the responsive T cell lines was re-stimulated with 10 μg/mL of its specific peptide while the other well was mock stimulated with 0.1% (v/v) DMSO. As positive control, one well of the DMSO-stimulated T cell line was activated by treatment with 20 ng/ml Phorbol 12-myristate 13-acetate and 1 μM lonomycin. Then, 1:10 diluted GolgiStop (containing monensin) and 1:15 diluted GolgiPlug (containing brefeldin A) were added to all wells to inhibit intracellular transport processes. Monensin inhibits the trans-Golgi transport, while brefeldin A inhibits transport between the ER and the Golgi (Chardin and McCormick, 1999; Mollenhauer et al., 1990). The stimulated cells were incubated for 5 h at standard culture conditions.
After incubation, the cells were resuspended, centrifuged at 400×g for 5 min and the supernatant was discarded. Then, the cells were resuspended in 50 μL cold staining buffer (unstained) or 50 μL cold staining buffer containing the phenotyping antibodies against CD3, CD4, CD8 and the LIVE/DEAD™ Fixable Near-IR Dead Cell Stain (unstimulated and stimulated) and incubated at 4° C. for 30 min. After the surface staining, the cells were washed twice with 200 μL staining buffer and centrifugation at 1400 rpm, followed by fixation with 1% paraformaldehyde (PFA) solution for 15 min at 4° C. All following centrifugation steps were carried out at 1400 rpm for 5 min. After fixation, the cells were again washed twice with 200 μL cold staining buffer and were then resuspended in 100 μL 1× perm/wash buffer diluted in PBS (provided is 10×) for 15 min at 4° C. for cell membrane permeabilization. Subsequently, the plate was centrifuged and the supernatant was discarded. The cells were resuspended in 50 μL perm/wash buffer diluted in PBS (unstained) or 50 μL perm/wash buffer containing the intracellular cytokine antibodies against IFNγ, TNFα and granzyme B (unstimulated and stimulated) for 30 min at 4° C. After intracellular cytokine staining, the cells were washed twice with 200 μL 1× perm/wash buffer. Then 100 μL fix/perm solution (provided in the BD Cytofix/Cytoperm kit) were added per well. After 20 min of incubation at 4° C., the cells of each well were washed twice with 200 μL 1× perm/wash buffer before being resuspended in 100 μL staining buffer and stored at 4° C. overnight.
OneComp eBeads™ (eBeads) and ArC™ Amine Reactive Compensation beads (ArC beads) were stained as compensation controls. For each antibody, 50 μL of the eBeads suspension were stained with the same dilution as used for staining the cells. The ArC beads were stained with 1 μL LIVE/DEAD™ Fixable Near-IR Dead Cell Stain stock solution in 50 μL staining buffer. The beads were incubated at 4° C. for 30 min and were then washed two times with 1 mL staining buffer and centrifugation at 400×g. Finally, the stained beads were resuspended in 400 μL staining buffer, one drop of ArC™ negative beads was added to the labelled ArC beads, and all beads were stored at 4° C. overnight.
On the next day, the samples and the single stained compensation controls were acquired at a BD FACS Canto™ II analyzer using the BD FACS Diva Software Version 6. […]

Substance: 3 (TIHDIILQCVY; Human papillomavirus 16) [compound 3]
- ELISpot: Immungenicity of the peptide shown by IFN-gamma ELISPOT analysis ([1]; HLA restriction A01): +
- cytokine: Immunogenicity of the peptide shown by intracellular cytokine staining (IFN-gamma, TNF-alpha) ([2]; HLA restriction A01): +

Substance: 4 (YGVCDKCLKFY; Human papillomavirus 16) [compound 4]
- ELISpot: Immungenicity of the peptide shown by IFN-gamma ELISPOT analysis ([1]; HLA restriction A01): +
- cytokine: Immunogenicity of the peptide shown by intracellular cytokine staining (IFN-gamma, TNF-alpha) ([2]; HLA restriction A01): +

Substance: 5 (EYRYYCYSLY; Human papillomavirus 16) [compound 5]
- ELISpot: Immungenicity of the peptide shown by IFN-gamma ELISPOT analysis ([1]; HLA restriction A01): +
- cytokine: Immunogenicity of the peptide shown by intracellular cytokine staining (IFN-gamma, TNF-alpha) ([2]; HLA restriction A01): +

Substance: 6 (DLQPETTDLY; Human papillomavirus 16) [compound 6]
- ELISpot: Immungenicity of the peptide shown by IFN-gamma ELISPOT analysis ([1]; HLA restriction A01): +
- cytokine: Immunogenicity of the peptide shown by intracellular cytokine staining (IFN-gamma, TNF-alpha) ([2]; HLA restriction A01): +

Substance: 7 (TTDLYCYEQ; Human papillomavirus 16) [compound 7]
- ELISpot: Immungenicity of the peptide shown by IFN-gamma ELISPOT analysis ([1]; HLA restriction A01): +
- cytokine: Immunogenicity of the peptide shown by intracellular cytokine staining (IFN-gamma, TNF-alpha) ([2]; HLA restriction A01): +

Substance: 24 (DLLMGTLGIVC; Human papillomavirus 16) [compound 24]
- ELISpot: Immungenicity of the peptide shown by IFN-gamma ELISPOT analysis ([1]; HLA restriction A02): +
- cytokine: Immunogenicity of the peptide shown by intracellular cytokine staining (IFN-gamma, TNF-alpha) ([2]; HLA restriction A02): +

Substance: 43 (LLMGTLGIVC; Human papillomavirus 16) [compound 43]
- ELISpot: Immungenicity of the peptide shown by IFN-gamma ELISPOT analysis ([1]; HLA restriction A02): +
- cytokine: Immunogenicity of the peptide shown by intracellular cytokine staining (IFN-gamma, TNF-alpha) ([2]; HLA restriction A02): +

Substance: 59 (FAFRDLCIVYR; Human papillomavirus 16) [compound 59]
- ELISpot: Immungenicity of the peptide shown by IFN-gamma ELISPOT analysis ([1]; HLA restriction A11): +
- cytokine: Immunogenicity of the peptide shown by intracellular cytokine staining (IFN-gamma, TNF-alpha) ([2]; HLA restriction A11): +

Substance: 60 (AFRDLCIVYR; Human papillomavirus 16) [compound 60]
- ELISpot: Immungenicity of the peptide shown by IFN-gamma ELISPOT analysis ([1]; HLA restriction A11): +
- cytokine: Immunogenicity of the peptide shown by intracellular cytokine staining (IFN-gamma, TNF-alpha) ([2]; HLA restriction A11): +

Substance: 61 (IVYRDGNPY; Human papillomavirus 16) [compound 61]
- ELISpot: Immungenicity of the peptide shown by IFN-gamma ELISPOT analysis ([1]; HLA restriction A03): +
- ELISpot: Immungenicity of the peptide shown by IFN-gamma ELISPOT analysis ([1]; HLA restriction A11): +
- cytokine: Immunogenicity of the peptide shown by intracellular cytokine staining (IFN-gamma, TNF-alpha) ([2]; HLA restriction A03): +
- cytokine: Immunogenicity of the peptide shown by intracellular cytokine staining (IFN-gamma, TNF-alpha) ([2]; HLA restriction A11): +

Substance: 62 (NPYAVCDKCLK; Human papillomavirus 16) [compound 62]
- ELISpot: Immungenicity of the peptide shown by IFN-gamma ELISPOT analysis ([1]; HLA restriction A11): +
- cytokine: Immunogenicity of the peptide shown by intracellular cytokine staining (IFN-gamma, TNF-alpha) ([2]; HLA restriction A11): +

Substance: 63 (AVCDKCLKFY; Human papillomavirus 16) [compound 63]
- ELISpot: Immungenicity of the peptide shown by IFN-gamma ELISPOT analysis ([1]; HLA restriction A03): +
- ELISpot: Immungenicity of the peptide shown by IFN-gamma ELISPOT analysis ([1]; HLA restriction B15): +
- cytokine: Immunogenicity of the peptide shown by intracellular cytokine staining (IFN-gamma, TNF-alpha) ([2]; HLA restriction A03): +
- cytokine: Immunogenicity of the peptide shown by intracellular cytokine staining (IFN-gamma, TNF-alpha) ([2]; HLA restriction A11): +
- cytokine: Immunogenicity of the peptide shown by intracellular cytokine staining (IFN-gamma, TNF-alpha) ([2]; HLA restriction B15): +

Substance: 64 (AVCDKCLKFYS; Human papillomavirus 16) [compound 64]
- ELISpot: Immungenicity of the peptide shown by IFN-gamma ELISPOT analysis ([1]; HLA restriction A11): +
- cytokine: Immunogenicity of the peptide shown by intracellular cytokine staining (IFN-gamma, TNF-alpha) ([2]; HLA restriction A11): +

Substance: 65 (VCDKCLKFYSK; Human papillomavirus 16) [compound 65]
- ELISpot: Immungenicity of the peptide shown by IFN-gamma ELISPOT analysis ([1]; HLA restriction A11): +
- cytokine: Immunogenicity of the peptide shown by intracellular cytokine staining (IFN-gamma, TNF-alpha) ([2]; HLA restriction A11): +

Substance: 66 (GIVCPICSQK; Human papillomavirus 16) [compound 66]
- ELISpot: Immungenicity of the peptide shown by IFN-gamma ELISPOT analysis ([1]; HLA restriction A03): +
- cytokine: Immunogenicity of the peptide shown by intracellular cytokine staining (IFN-gamma, TNF-alpha) ([2]; HLA restriction A03): +

Substance: 74 (DLLIRCINCQK; Human papillomavirus 16) [compound 74]
- ELISpot: Immungenicity of the peptide shown by IFN-gamma ELISPOT analysis ([1]; HLA restriction A11): +
- cytokine: Immunogenicity of the peptide shown by intracellular cytokine staining (IFN-gamma, TNF-alpha) ([2]; HLA restriction A11): +

Substance: 84 (PYAVCDKCLKF; Human papillomavirus 16) [compound 84]
- ELISpot: Immungenicity of the peptide shown by IFN-gamma ELISPOT analysis ([1]; HLA restriction A24): +
- cytokine: Immunogenicity of the peptide shown by intracellular cytokine staining (IFN-gamma, TNF-alpha) ([2]; HLA restriction A24): +

Substance: 87 (PDRAHYNIVTF; Human papillomavirus 16) [compound 87]
- ELISpot: Immungenicity of the peptide shown by IFN-gamma ELISPOT analysis ([1]; HLA restriction A24): +
- cytokine: Immunogenicity of the peptide shown by intracellular cytokine staining (IFN-gamma, TNF-alpha) ([2]; HLA restriction A24): +

Substance: 88 (DRAHYNIVTF; Human papillomavirus 16) [compound 88]
- ELISpot: Immungenicity of the peptide shown by IFN-gamma ELISPOT analysis ([1]; HLA restriction A24): +
- cytokine: Immunogenicity of the peptide shown by intracellular cytokine staining (IFN-gamma, TNF-alpha) ([2]; HLA restriction A24): +

Substance: 119 (LRREVYDFAF; Human papillomavirus 16) [compound 119]
- ELISpot: Immungenicity of the peptide shown by IFN-gamma ELISPOT analysis ([1]; HLA restriction B15): +

Substance: 120 (IVYRDGNPYAV; Human papillomavirus 16) [compound 120]
- ELISpot: Immungenicity of the peptide shown by IFN-gamma ELISPOT analysis ([1]; HLA restriction B15): +
